Results taken from ChEMBL document CHEMBL4507281, “Data for DCP probe BI-4394” (2021).

Experiments:
[1] = biological target: Dual specificity mitogen-activated protein kinase kinase 1 (Homo sapiens) (UniProt Q02750); conditions: Compound concentration 100.0 nM
[2] = biological target: Death-associated protein kinase 1 (Homo sapiens) (UniProt P53355); conditions: Compound concentration 100.0 nM
[3] = biological target: T1, Phosphorylase b kinase regulatory subunit alpha, liver isoform (Homo sapiens) (UniProt P46019); conditions: Compound concentration 100.0 nM
T1 sequence (whole entry): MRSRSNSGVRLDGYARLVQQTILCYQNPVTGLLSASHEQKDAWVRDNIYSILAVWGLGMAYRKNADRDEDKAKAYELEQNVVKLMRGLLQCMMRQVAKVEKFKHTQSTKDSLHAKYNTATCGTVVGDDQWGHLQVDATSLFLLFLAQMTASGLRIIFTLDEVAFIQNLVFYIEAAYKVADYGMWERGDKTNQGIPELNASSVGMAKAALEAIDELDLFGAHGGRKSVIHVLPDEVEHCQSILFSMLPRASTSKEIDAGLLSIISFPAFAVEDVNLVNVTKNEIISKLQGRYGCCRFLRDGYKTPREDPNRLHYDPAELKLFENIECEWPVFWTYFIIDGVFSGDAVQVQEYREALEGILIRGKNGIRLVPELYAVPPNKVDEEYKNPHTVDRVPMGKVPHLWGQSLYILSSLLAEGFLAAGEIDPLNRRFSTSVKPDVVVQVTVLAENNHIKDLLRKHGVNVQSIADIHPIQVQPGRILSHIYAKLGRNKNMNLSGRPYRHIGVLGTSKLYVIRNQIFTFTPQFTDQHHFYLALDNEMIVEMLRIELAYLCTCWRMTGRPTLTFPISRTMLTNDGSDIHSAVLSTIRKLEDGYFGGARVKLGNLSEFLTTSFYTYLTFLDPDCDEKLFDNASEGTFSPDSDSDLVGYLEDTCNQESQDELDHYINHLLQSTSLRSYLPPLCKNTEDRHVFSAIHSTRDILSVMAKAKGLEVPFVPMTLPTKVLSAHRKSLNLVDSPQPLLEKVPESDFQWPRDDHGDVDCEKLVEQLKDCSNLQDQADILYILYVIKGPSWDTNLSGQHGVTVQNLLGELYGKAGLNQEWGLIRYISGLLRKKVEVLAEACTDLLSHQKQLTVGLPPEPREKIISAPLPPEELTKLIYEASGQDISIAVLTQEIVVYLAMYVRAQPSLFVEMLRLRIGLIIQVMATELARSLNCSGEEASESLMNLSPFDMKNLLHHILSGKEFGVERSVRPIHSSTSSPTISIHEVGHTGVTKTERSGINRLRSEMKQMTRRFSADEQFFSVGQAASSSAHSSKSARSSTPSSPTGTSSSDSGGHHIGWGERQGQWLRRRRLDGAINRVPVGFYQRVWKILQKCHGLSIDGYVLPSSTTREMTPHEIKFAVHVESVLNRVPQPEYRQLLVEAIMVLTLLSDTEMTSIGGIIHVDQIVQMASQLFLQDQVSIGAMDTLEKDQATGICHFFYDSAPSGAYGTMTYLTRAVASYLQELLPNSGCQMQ

[4] = biological target: Mitogen-activated protein kinase kinase kinase 1 (Homo sapiens) (UniProt Q13233); conditions: Compound concentration 100.0 nM
[5] = biological target: Interleukin-1 receptor-associated kinase 1 (Homo sapiens) (UniProt P51617); conditions: Compound concentration 100.0 nM
[6] = biological target: Ephrin type-B receptor 6 (Homo sapiens) (UniProt O15197); conditions: Compound concentration 100.0 nM
[7] = biological target: Ephrin type-A receptor 3 (Homo sapiens) (UniProt P29320); conditions: Compound concentration 100.0 nM
[8] = biological target: Sodium-dependent serotonin transporter (Homo sapiens) (UniProt P31645); conditions: Compound concentration 10.0 uM
[9] = biological target: Cyclin-dependent kinase 13 (Homo sapiens) (UniProt Q14004); conditions: Compound concentration 100.0 nM
[10] = biological target: Serine/threonine-protein kinase BRSK2 (Homo sapiens) (UniProt Q8IWQ3); conditions: Compound concentration 100.0 nM
[11] = biological target: Ribosomal protein S6 kinase alpha-6 (Homo sapiens) (UniProt Q9UK32); conditions: Compound concentration 100.0 nM
[12] = tested on: Tyrosine-protein kinase ABL1 (Homo sapiens), P00519 [F317I]; conditions: Compound concentration 100.0 nM
[13] = biological target: Histamine H1 receptor (Homo sapiens) (UniProt P35367); conditions: Compound concentration 10.0 uM
[14] = biological target: 5-hydroxytryptamine receptor 1E (Homo sapiens) (UniProt P28566); conditions: Compound concentration 10.0 uM
[15] = biological target: Myosin-IIIa (Homo sapiens) (UniProt Q8NEV4); conditions: Compound concentration 100.0 nM
[16] = biological target: NT-3 growth factor receptor (Homo sapiens) (UniProt Q16288); conditions: Compound concentration 100.0 nM
[17] = biological target: Serine/threonine-protein kinase 26 (Homo sapiens) (UniProt Q9P289); conditions: Compound concentration 100.0 nM
[18] = biological target: Cyclin-dependent kinase 11A (Homo sapiens) (UniProt Q9UQ88); conditions: Compound concentration 100.0 nM
[19] = biological target: Cyclin-dependent kinase-like 5 (Homo sapiens) (UniProt O76039); conditions: Compound concentration 100.0 nM
[20] = biological target: Tyrosine-protein kinase Lyn (Homo sapiens) (UniProt P07948); conditions: Compound concentration 100.0 nM
[21] = biological target: T2, Interleukin-1 receptor-associated kinase 4 (Homo sapiens) (UniProt Q9NWZ3); conditions: Compound concentration 100.0 nM
T2 sequence (whole entry): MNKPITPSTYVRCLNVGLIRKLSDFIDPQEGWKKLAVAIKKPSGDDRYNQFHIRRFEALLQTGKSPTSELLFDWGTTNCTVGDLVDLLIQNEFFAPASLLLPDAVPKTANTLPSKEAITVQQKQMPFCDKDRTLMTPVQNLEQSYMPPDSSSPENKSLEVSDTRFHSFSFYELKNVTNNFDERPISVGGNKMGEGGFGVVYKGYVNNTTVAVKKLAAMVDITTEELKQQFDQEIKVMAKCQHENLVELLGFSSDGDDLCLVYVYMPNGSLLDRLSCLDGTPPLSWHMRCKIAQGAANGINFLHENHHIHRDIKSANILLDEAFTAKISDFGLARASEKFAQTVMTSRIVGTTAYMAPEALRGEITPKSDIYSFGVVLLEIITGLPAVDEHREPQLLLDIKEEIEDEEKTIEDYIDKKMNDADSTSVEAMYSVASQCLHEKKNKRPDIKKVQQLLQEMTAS

[22] = biological target: NUAK family SNF1-like kinase 1 (Homo sapiens) (UniProt O60285); conditions: Compound concentration 100.0 nM
NUAK family SNF1-like kinase 1 (Homo sapiens), sequence (O60285 whole entry): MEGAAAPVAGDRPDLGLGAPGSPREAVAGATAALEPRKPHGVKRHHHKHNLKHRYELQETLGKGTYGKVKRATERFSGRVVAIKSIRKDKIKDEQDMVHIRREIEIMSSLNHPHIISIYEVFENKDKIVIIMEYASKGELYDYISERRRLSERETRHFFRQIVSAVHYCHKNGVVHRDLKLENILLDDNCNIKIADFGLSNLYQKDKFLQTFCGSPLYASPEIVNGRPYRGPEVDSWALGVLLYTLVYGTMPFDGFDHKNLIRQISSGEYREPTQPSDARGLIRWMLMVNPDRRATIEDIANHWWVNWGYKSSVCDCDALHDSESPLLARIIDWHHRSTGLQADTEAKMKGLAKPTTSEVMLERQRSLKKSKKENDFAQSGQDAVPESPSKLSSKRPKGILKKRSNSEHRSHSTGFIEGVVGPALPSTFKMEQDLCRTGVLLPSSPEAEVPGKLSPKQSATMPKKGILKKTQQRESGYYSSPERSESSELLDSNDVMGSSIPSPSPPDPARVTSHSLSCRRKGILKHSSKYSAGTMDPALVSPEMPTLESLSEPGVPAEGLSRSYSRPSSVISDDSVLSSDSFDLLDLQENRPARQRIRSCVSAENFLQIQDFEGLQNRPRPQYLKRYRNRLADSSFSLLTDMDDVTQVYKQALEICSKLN

Cyclin-dependent kinase-like 5 (Homo sapiens), sequence (O76039 whole entry): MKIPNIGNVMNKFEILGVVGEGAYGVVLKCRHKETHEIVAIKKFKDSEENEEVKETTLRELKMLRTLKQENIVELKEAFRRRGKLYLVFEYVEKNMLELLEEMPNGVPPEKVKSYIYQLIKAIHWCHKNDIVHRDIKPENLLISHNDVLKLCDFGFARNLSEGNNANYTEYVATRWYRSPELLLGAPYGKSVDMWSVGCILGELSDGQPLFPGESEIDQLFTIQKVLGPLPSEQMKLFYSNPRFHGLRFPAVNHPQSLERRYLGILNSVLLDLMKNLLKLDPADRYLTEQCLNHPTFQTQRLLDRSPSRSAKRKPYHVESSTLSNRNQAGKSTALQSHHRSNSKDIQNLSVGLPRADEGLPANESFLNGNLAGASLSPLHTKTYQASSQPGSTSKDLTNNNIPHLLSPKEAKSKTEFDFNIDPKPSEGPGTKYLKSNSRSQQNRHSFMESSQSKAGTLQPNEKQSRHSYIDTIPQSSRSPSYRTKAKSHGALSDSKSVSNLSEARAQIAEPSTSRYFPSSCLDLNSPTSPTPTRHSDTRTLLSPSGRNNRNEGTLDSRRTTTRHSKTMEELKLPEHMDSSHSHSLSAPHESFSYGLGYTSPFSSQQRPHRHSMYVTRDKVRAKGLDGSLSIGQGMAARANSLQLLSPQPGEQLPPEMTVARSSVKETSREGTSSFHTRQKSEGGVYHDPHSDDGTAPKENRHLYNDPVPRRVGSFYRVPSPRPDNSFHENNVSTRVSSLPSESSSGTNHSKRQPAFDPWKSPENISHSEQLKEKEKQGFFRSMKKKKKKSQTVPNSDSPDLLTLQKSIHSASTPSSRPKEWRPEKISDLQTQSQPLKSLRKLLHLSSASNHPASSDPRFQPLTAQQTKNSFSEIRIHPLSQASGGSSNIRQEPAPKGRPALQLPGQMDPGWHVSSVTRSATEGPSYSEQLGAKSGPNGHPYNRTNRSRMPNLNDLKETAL
Ribosomal protein S6 kinase alpha-6 (Homo sapiens), sequence (Q9UK32 whole entry): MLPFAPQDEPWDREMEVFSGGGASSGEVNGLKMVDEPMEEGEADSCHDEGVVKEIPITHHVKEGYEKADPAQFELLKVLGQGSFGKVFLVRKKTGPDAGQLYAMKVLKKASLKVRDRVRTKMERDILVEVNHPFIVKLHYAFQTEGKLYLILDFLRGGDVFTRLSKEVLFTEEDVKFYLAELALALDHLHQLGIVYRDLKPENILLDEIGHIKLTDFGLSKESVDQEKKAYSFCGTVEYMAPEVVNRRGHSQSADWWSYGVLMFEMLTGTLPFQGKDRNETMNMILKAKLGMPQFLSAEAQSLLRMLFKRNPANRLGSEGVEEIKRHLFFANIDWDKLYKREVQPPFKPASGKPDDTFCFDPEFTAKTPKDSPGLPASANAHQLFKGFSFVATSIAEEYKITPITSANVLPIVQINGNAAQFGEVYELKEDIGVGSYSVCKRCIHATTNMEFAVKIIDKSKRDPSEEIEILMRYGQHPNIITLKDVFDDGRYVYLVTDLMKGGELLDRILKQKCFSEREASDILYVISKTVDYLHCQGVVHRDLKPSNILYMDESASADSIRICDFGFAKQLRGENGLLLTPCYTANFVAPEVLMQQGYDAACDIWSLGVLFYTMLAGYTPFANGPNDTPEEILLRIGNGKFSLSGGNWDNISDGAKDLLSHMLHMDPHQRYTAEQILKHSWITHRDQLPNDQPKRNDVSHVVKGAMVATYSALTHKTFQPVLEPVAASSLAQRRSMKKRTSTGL
Histamine H1 receptor (Homo sapiens), sequence (P35367 whole entry): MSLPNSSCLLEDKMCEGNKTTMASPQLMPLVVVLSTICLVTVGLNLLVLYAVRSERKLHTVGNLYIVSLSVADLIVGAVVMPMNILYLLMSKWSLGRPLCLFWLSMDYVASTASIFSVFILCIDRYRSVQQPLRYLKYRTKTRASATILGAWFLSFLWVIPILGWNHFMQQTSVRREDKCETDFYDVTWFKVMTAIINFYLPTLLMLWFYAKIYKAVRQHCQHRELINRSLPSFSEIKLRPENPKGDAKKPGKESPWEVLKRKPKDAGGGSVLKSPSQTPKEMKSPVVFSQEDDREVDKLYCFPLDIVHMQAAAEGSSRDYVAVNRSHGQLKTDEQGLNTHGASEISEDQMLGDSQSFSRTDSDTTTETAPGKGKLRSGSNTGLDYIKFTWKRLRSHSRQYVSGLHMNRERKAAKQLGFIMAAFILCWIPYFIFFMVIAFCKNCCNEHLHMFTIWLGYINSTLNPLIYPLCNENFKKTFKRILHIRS
Cyclin-dependent kinase 11A (Homo sapiens), sequence (Q9UQ88 whole entry): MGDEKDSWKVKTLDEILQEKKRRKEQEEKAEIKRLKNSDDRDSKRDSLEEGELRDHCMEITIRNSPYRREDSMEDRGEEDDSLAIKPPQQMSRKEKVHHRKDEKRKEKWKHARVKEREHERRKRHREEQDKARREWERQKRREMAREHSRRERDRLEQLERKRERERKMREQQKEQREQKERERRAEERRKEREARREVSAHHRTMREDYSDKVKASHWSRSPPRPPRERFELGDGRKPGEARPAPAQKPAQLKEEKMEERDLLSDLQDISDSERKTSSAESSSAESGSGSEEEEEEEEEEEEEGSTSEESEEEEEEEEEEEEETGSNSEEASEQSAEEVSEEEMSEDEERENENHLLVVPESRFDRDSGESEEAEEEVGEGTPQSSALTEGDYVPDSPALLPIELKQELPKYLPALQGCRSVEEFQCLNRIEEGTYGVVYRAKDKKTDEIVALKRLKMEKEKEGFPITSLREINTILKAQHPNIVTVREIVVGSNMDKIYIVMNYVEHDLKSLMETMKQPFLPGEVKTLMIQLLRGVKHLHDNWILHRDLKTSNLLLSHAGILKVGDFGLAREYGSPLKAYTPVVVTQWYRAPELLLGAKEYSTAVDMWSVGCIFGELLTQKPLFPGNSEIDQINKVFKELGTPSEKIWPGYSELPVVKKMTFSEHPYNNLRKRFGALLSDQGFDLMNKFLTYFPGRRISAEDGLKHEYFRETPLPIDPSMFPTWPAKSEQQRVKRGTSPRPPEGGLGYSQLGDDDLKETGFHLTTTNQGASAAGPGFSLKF
NT-3 growth factor receptor (Homo sapiens), sequence (Q16288 32-839 limits assumed): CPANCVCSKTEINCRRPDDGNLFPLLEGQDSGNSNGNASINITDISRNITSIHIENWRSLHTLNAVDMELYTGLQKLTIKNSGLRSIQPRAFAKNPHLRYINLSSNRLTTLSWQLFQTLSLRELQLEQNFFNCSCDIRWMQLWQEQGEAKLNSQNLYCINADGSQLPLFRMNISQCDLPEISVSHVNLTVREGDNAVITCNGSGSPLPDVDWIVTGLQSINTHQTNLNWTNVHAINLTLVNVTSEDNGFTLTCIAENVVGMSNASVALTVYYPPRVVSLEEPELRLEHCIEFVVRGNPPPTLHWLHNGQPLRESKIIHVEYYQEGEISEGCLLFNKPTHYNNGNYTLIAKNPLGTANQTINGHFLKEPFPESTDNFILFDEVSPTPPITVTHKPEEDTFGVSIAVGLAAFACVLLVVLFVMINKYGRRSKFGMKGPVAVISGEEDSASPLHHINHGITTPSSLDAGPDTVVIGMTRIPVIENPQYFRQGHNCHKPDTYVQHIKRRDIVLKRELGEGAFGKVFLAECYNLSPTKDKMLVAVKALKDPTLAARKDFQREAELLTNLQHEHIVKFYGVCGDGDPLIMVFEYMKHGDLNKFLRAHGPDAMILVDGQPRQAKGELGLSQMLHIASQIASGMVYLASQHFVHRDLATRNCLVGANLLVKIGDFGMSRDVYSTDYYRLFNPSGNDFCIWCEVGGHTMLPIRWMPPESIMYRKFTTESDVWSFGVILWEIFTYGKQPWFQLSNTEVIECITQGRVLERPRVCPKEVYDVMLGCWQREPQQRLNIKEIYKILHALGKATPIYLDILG
Sodium-dependent serotonin transporter (Homo sapiens), sequence (P31645 whole entry, looked up): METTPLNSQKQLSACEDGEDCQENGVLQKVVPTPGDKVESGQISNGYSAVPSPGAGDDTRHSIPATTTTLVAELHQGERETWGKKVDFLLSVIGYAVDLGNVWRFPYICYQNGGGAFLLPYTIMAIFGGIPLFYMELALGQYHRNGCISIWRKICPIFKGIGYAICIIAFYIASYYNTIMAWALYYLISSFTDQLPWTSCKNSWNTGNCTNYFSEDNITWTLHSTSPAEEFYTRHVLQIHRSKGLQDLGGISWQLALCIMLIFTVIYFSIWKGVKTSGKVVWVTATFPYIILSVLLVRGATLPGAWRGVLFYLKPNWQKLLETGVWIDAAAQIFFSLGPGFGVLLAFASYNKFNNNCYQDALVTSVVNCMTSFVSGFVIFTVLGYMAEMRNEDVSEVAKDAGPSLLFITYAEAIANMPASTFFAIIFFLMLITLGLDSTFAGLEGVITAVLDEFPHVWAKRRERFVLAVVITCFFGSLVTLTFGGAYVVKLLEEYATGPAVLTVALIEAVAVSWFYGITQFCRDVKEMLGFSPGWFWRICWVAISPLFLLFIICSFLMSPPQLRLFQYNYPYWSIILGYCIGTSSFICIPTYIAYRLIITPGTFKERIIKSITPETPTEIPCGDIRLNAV

CCOC(=O)c1cc2cc(-c3cc(C(=O)NCc4ccc(C(=O)O)cc4)nn3C)ccc2[nH]1 [BI 4394]
inactive: residual activity [1] 90% | residual activity [2] 84% | residual activity [3] 100% | residual activity [4] 90% | residual activity [5] 85% | residual activity [6] 77% | residual activity [7] 100% | inhibition [8] -0.14% | residual activity [9] 83% | residual activity [10] 67% | residual activity [11] 95% | residual activity [12] 80% | inhibition [13] 9.64% | inhibition [14] 6.37% | residual activity [15] 100% | residual activity [16] 94% | residual activity [17] 81% | residual activity [18] 100% | residual activity [19] 87% | residual activity [20] 100% | residual activity [21] 91% | residual activity [22] 100%

Cn1nc(C(=O)NCc2ccc(C(=O)O)cc2)cc1-c1ccc2[nH]ccc2c1 [BI 4395]
inactive: residual activity [1] 91% | residual activity [2] 97% | residual activity [3] 86% | residual activity [4] 65% | residual activity [5] 93% | residual activity [6] 96% | residual activity [7] 89% | inhibition [8] 5.3% | residual activity [9] 72% | residual activity [10] 100% | residual activity [11] 86% | residual activity [12] 68% | inhibition [13] 8.74% | inhibition [14] 10.3% | residual activity [15] 95% | residual activity [16] 89% | residual activity [17] 95% | residual activity [18] 96% | residual activity [19] 85% | residual activity [20] 100% | residual activity [21] 71% | residual activity [22] 70%
